From patent US4465676A, “16α Halogen substituted 3,17β-dihydroxy steroidal estrogens” (priority 1980, dated 1984) come the findings set out here.

A word on the Kd: it is the equilibrium constant for the complex coming apart. Higher therefore signals a looser complex.

For test [1], the system named is rat uterine cytosol (8S and 4S forms). The experiment in a line: Glycerol gradient sedimentation of labelled rat uterine cytosol. The test is classed as binding. Conditions: glycerol gradients, with and without 0.4M KCl; DES 7×10^-7 M. How it is done:
The analysis was performed with glycerol rather than the usual sucrose because a more pronounced 8S peak was obtained in the glycerol gradients with both ^3 H- and ^125 I-labeled estradiol. Rat uterine cytosol was prepared as described in Example 4. […] Separate tubes also contained 0.4M KCl. At the end of the incubation, free steroid was removed by adding the incubation mixture to a tube containing a 5-mg pellet of dextran-coated charcoal. After shaking for 5 to 10 minutes at 0° C., the charcoal was removed by centrifugation. […] Fractions of four drops were collected from the bottom of the tube. Control tubes containing cytosol mixed with ^14 C-labeled bovine serum albumin (BSA) as a marker were also analyzed. The sedimintation pattern is illustrated in FIG. 2. The low-salt 8S form (FIG. 2, Curve A) is totally transformed into the 4S form by 0.4M KCl (FIG. 2, Curve B).

The target of test [2] is T1, estrogen receptor (calf uterine cytosol) (Bos taurus, UniProt P49884).
T1 construct: Fresh calf uteri obtained from a slaughterhouse; from tissue; host or cells: calf uterus, 150,000 x g cytosol from lyophilized powder
T1 sequence (P49884 1-596): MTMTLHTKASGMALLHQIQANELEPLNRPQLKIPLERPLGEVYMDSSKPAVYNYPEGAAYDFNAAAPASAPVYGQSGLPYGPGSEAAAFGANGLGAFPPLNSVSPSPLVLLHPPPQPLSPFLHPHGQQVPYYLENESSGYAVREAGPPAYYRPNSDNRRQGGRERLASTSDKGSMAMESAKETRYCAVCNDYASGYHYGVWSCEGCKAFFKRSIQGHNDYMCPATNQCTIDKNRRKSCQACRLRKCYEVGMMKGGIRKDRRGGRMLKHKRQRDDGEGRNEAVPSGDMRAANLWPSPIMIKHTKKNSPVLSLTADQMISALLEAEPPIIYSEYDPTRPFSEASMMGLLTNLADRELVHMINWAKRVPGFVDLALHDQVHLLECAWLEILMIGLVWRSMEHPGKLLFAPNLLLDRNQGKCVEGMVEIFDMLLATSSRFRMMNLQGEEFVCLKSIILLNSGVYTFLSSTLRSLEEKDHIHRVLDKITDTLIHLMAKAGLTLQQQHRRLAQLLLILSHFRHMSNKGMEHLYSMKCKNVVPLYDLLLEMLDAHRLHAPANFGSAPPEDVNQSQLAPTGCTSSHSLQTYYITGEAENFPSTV
In words: Competition for the estrogen receptor in calf uterine cytosol. The test is classed as binding. Conditions: 125I-E2 0.22 nM, 3H-E2 0.74 nM. As to the method:
Several compounds, at the two indicated concentrations, were allowed to compete with both labeled steroids for sites in calf uterine cytosol. Incubations were overnight at 4° C., and bound and free steroids were separated with dextran-coated charcoal.

Test [3] relates to antisera against bovine serum albumin complexes with E2-17-hemisuccinate, E2-6-carboxymethyloxime and E2-3-carboxymethyl ether. In words: Radioimmunoassay with antisteroid antisera. In kind it is binding, rabbits. To be noted: three antisera, various dilutions. As to the method: Antisteroid antisera were produced in rabbits immunized with steroid-bovineserum albumin conjugates.
Varying amounts of E2 dissolved in methanol were added to test tubes and evaporated to dryness. The residues were dissolved in 100 μl of antiserum that had been diluted in 0.1M phosphate, pH 7.0/0.015M sodium azide/0.15M NaCl/0.1% gelatin (PBS buffer). […] Upon completion of the incubation, 100 μl of 0.5% gelatin in PBS buffer was added, followed by 1 ml of PBS buffer containing 2.5 mg of dextran-coated charcoal. The mixture was agitated in a vortex mixer and, after 10 minutes at 4° C., it was centrifuged at 5000×g for 10 minutes at 4° C. Aliquots (0.9 ml) were assayed for radioactivity.
The data also indicate that very sensitive radioimmunoassays could be developed with all three antisera.

Test [4] deals with T2, estrogen receptor of human mammary tumors (Homo sapiens, UniProt P03372).
T2 construct: 124 and 126
T2 sequence (P03372 1-595): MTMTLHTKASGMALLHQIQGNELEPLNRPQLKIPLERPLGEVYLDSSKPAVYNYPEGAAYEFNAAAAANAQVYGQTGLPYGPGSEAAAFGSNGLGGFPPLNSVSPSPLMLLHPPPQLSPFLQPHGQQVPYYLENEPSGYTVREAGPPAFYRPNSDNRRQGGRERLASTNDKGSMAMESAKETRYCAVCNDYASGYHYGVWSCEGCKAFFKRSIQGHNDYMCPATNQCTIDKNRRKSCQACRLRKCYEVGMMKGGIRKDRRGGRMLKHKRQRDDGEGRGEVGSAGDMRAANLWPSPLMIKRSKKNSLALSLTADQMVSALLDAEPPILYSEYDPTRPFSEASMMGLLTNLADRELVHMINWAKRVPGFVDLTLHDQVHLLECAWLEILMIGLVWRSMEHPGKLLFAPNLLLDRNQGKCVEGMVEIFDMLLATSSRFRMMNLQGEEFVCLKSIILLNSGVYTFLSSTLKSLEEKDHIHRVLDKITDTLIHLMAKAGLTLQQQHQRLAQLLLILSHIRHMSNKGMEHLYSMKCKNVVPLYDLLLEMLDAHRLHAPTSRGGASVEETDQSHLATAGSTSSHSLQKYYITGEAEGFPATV
In words: Estrogen receptor assay in human mammary tumor cytosol. In kind it is binding. To be noted: 1.5 mg/ml protein. How it is done: Extrogen receptor human mammary tumors were kept frozen in dry ice in a pulverized form. […] The final concentration of cytosolic protein used in the assay was 1.5 mg/ml.
A pool of two different estrogen receptor-positive mammary tumors was studied.

Test [5] addresses T3, estrogen receptors (rat uterine cytosol) (Rattus norvegicus, UniProt P06211).
T3 sequence (P06211 1-600): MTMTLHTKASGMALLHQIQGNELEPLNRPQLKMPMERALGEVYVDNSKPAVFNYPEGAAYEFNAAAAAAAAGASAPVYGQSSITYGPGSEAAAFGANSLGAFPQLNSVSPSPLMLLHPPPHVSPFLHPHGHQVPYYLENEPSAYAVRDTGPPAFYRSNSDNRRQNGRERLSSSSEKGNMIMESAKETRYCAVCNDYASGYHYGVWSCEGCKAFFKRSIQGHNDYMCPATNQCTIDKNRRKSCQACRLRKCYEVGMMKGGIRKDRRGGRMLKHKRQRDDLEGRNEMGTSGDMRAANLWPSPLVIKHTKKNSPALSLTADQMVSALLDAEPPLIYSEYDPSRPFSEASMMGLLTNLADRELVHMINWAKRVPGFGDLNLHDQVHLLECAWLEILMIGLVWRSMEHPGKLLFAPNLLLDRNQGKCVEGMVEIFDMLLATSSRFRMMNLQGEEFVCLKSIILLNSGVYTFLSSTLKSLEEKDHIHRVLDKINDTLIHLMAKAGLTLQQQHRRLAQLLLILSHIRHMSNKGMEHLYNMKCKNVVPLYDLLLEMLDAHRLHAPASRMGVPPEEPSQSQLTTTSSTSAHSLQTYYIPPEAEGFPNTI
In words: Kinetic experiments and Scatchard analyses in rat uterine cytosol.

`C[C@]12CC[C@@H]3c4ccc(O)cc4CC[C@H]3[C@@H]1C[C@@H]([125I])[C@@H]2O` [^125 I-E2, 16α-[^125 I]iodoestra-1,3,5(10)-triene-3,17β-diol]: the “displacement by DES of radioactivity bound to the 8S and 4S forms” value in test [1] was “almost completely displaced by DES”. The “% B0 (initial specific binding of tracer alone)” value in test [2] came to 40%. In test [3], the “binding of tracer to antisera” value is “bound to all three antisera”. The “receptor concentration found with the ligand” value was 24 fmol/mg of protein in test [4] (mammary tumor pool no. 124) and 72 fmol/mg in test [4] (mammary tumor pool no. 126). The molecule also registered a Kd in test [5] of 0.27 nM.
